Source: patent US10214491B2, “Activators and therapeutic applications thereof” (THE JOHNS HOPKINS UNIVERSITY, priority 2007, dated 2019)
pEC50, pIC50: −log10 of the molar value.

Columns and labels:
[1] = tested on: p53DsRed reporter in PG3/9 melanoma cells (A375 clone); experiment: p53DsRed reporter activation assay (in vitro p53 activity assay); format: cell-based; settings: for pEC50: Homo sapiens, A-375, PG3/9 melanoma cells, 24 hours, read-out: effective concentration (EC50), p53DsRed reporter activation
Experimental: The ability of the compounds to activate p53 was analyzed using a cell-based assay. To establish the assay, a stable cell transfectant expressing a p53-responsive reporter was generated. A375 melanoma cell line (ATCC CRL-1619) was transfected with a vector containing the p53 consensus element 13x repeat (13XRE) (Kern et al., 1991) cloned to a DsRed Express reporter vector (Clontech) to yield the vector “PG13DsRed”, hereafter termed as “p53DsRed”. […] The cell clone PG3/9 was used in the screen.
The assay was carried out in a 96-well format and all plate handlings were done using liquid handling robots (Thermo CRS, Thermo Electron Corporation; Biomek FX, Beckman Coulter and Hamilton STAR, Hamilton Microlab). Cells were plated at 10,000 cells/100 μL/well onto 96-well ViewPlates (Packard) and incubated overnight at +37° C. and 5% CO2. Small molecule compound chemical libraries were purchased and diluted to dimethylsulfoxide (DMSO) at 10 mM concentration. The compounds were pin-transferred to plain media at approximately 3 μM concentration either as single (one compound/one well) or pools of compounds (two compounds/one well). The growth media was removed and replaced with media with the test compounds followed by incubation of the cells for 24 h at +37° C. and 5% CO2. […] Following the incubation, the cells were washed with phosphate buffered saline and fixed with paraformaldehyde (PFA, 4%, 25 min, RT) and cell nuclei were stained with Hoechst 33342 (Molecular Probes, 4 μg/mL, 2 min, RT).
The fluorescence signals of Hoechst 33342 and DsRed reporter expression in the fixed cells were analyzed using ArrayScan 4.5 high-content screening platform (Cellomics) including an inverted microscope (Zeiss 200M) with 10× objective (Zeiss), Omega XF93 filter (Omega), ORCA-AG CCD camera (Hamamatsu). The algorithm used for image acquisition and analysis was Target Activation Bioapplication (Cellomics), which was set to analyse the total number of cells and the percentage of p53 reporter positive cells termed as “responders”. For each well, four images on both fluorescence channels were acquired corresponding to approximately 1700 cells in mock-treated wells. The mean number of responders was calculated for each well, and compounds causing reporter activation for more than two times the mean number of responders in the mock treated cells in each plate were regarded as hits.
In the secondary screen the hits were collected and tested over 100 nM to 10 μM concentration range. The compound treatment time, cell fixations and stainings as well as fluorescence signal detection was as described above. Compounds providing consistent p53DsRed reporter activation at low μM concentration range were selected for further testing. The effective concentration 50 (EC50) was calculated using the following formula: […]

A375 melanoma (WTp53) = experiment: WST-1 cell viability assay, A375; format: cell-based; settings: Homo sapiens, A-375, 72 h; A375 melanoma (WTp53), three days, WST-1
Experimental: (§1) The effect of the compounds selected using the screening assay on the viability of several tumor cell lines as well as diploid cell lines and cell strains was studied. Cells were plated in 96-well plates at a density of 10,000 cells/100 μL/well and were incubated overnight. The following day compound dilutions ranging from 0 to 40 μM were applied to the cells in triplicate and the cells were incubated with the compounds for three days. Cell viability was assayed using the WST-1 cell proliferation reagent (Roche Diagnostics, Germany) The WST-1 reagent was diluted 1:10 in cell culture media and 100 μL of the reagent dilution was applied onto cells followed by 1 hour incubation at +37° C. The specific absorbance was measured at 450 nm and a reference absorbance was measured at 690 nm. […] Analysis for Protein Levels

RPMI7951 (MUTp53) = experiment: WST-1 cell viability assay, RPMI-7951; format: cell-based; settings: Homo sapiens, RPMI-7951, 72 h, three days
Experimental: as §1

WS-1 diploid fibroblast = experiment: WST-1 cell viability assay, WS-1; format: cell-based, human; settings: Homo sapiens, 72 h, three days
Experimental: as §1

[2] = tested on: Human intestinal endothelial cells; experiment: WST-1 cell viability assay, intestinal endothelial cells; format: cell-based; settings: Endothelial cell, 72 h, three days
Experimental: as §1

A375 melanoma cells = experiment: Flow cytometry cell cycle and apoptosis analysis; format: cell-based
Experimental: Cell cycle analysis and cellular apoptosis was assayed with flow cytometry (LSR, Beckton Dickinson). Cells were treated with the compounds and both floating and adherent cells were harvested and fixed in 70% ethanol at −20° C. followed by staining of DNA with propidium iodide. A total of 10,000 counts were collected and data was analysed using ModFit LT 3.1 software. Cells present in sub-G1 population were regarded as apoptotic.

In vivo toxicity tests = settings: mice; for toxicity by weight curves, macroscopical pathologies, hematoxylin-eosin staining of tissues: 9 doses/3 weeks
Experimental: Acute and chronic toxicity of the compounds was tested on FVB/N mice. Female mice of 4-6 weeks old were purchased from Harlan and 2 animals were used per compound dose. The mice were injected intraperitoneally with the compounds three times a week for three weeks in 30 microL DMSO. Two animals received vehicle only (=30 μL DMSO). The animals were weighed prior to injections and were monitored for any signs of toxicity, distress or unusual behaviour. The animals were sacrificed three days after receiving the final injection. The liver, kidney, spleen, small intestine and thymus were excised and fixed in 4% paraformaldehyde overnight, and processed into paraffin-blocks. Haematoxylin-eosin staining (HE staining) of the tissues was performed using standard immunohistological techniques.

[3] = tested on: BC3-luc pleural effusion lymphoma cells; experiment: Orthotopic xenograft model of pleural effusion lymphoma; format: in vivo; settings: NOD-SCID mice
Experimental: An orthotopic xenograft model of pleural effusion lymphoma was used to assess the anti-tumor activities of compounds 15, 21 and 22. Female NOD-SCID mice (Charles River, France) were injected intraperitoneally with pleural effusion lymphoma cells carrying a stable NF-kappaB regulated luciferase reporter (BC3-luc cells) (Keller et al., 2006). The tumors were allowed to establish for three days after which the mice were imaged and divided into treatment (groups 4-5 mice per group). The compound treatments were initiated on day four. The mice received 2 mg/kg (cmp21) or 20 mg/kg (cmp15 and 22) every other/third day for seven times via i.p. injections, control mice received DMSO only. The mice were imaged prior to each compound injection. Imaging was carried out with Xenogen In Vivo Imaging System (IVIS), D-luciferin (Synchem OHG, Germany) was injected intraperitoneally (100 mg/kg) 10-15 min prior to each imaging. Quantitation was done using Igor Pro Carbon analysis software, bioluminescence was quantitated and plotted as total flux within a given ROI.

Question: With `CN(C)CCNC(=O)c1cccn2c(=O)c3cc4ccccc4cc3nc12` [Compound 21] as the compound, how does the pEC50 [1] read?
Answer: The pEC50 was 6.52.

Question: What about the pIC50 (A375 melanoma (WTp53)) of the same compound?
Answer: The pIC50 was 6.15.

Question: And the pIC50 (RPMI7951 (MUTp53))?
Answer: The pIC50 was 5.52.

Question: What about the pIC50 (WS-1 diploid fibroblast) of the same compound?
Answer: Its pIC50 is 5.72.

Question: And the pIC50 [2]?
Answer: The pIC50 was 5.57.

Question: And the “cell cycle / apoptosis phenotype” value (A375 melanoma cells; A375, 0.1 μM (three days) and 0.5 μM (six days))?
Answer: Its value is “G2-phase arrest and apoptosis”.

Question: What about the “acute or chronic toxicities based on histological HE-stainings” value (In vivo toxicity tests; i.p., 0.5, 1, 2 mg/kg three times a week for three weeks) of the same compound?
Answer: The value was “No acute or chronic toxicities were observed”.

Question: What about the “toxicity by weight curves, macroscopical pathologies, hematoxylin-eosin staining of tissues” value (In vivo toxicity tests; i.p., 0.5, 1, 2 mg/kg) of the same compound?
Answer: The value was “did not show any apparent toxicity”.

Question: And the “inhibition of tumor cell growth (bioluminescence)” value ([3]; 2 mg/kg i.p. seven times)?
Answer: The value was “did not have any effect”.

Question: What does the source list for `Cc1cc(C)c2nc3nc(C)cc(C)c3c(N)c2c1` [Compound 22, 2,4,7,9-tetramethylbenzo[b]-1,8-naphthyridin-5-amine]?
Answer: pEC50 [1]: 5.59; fraction of p53-reporter activated cells at high concentrations ([1]; high concentrations, apparently due to excessive cell death): decrease in the fraction of p53-reporter activated cells; pIC50 (A375 melanoma (WTp53)): 5.34; pIC50 (RPMI7951 (MUTp53)): 4.88; pIC50 (WS-1 diploid fibroblast): 4.94; pIC50 [2]: 4.84; cell cycle / apoptosis phenotype (A375 melanoma cells; A375, three days at 10 μM or six days at 5 μM): G2-phase arrest and apoptosis; acute or chronic toxicities based on histological HE-stainings (In vivo toxicity tests; i.p., 5, 10 and 20 mg/kg three times a week for three weeks): No acute or chronic toxicities were observed; toxicity by weight curves, macroscopical pathologies, hematoxylin-eosin staining of tissues (In vivo toxicity tests; i.p., 5, 10 and 20 mg/kg): did not show any apparent toxicity; inhibition of tumor cell growth (bioluminescence) ([3]; 20 mg/kg i.p. seven times): noticeable inhibition of the tumor cell growth
